What was measured:
[1] = tested on: STAT1 (phosphorylated at Tyr701) in NCI-H1373 cells; assay: Phospho-STAT1 (Tyr701) LANCE Ultra TR-FRET Detection Assay; assay type: cell-based; conditions: Homo sapiens, 48 hours, induction of pSTAT1, normalized to 10 uM positive control and DMSO, 4-parameter fit, read-out: NH1373 pSTAT1 EC50
Protocol: Phospho-STAT1 (Tyr701 LANCE Ultra TR-FRET Detection Assay
LANCE Ultra phospho-STAT1 (Tyr701) kits available from Perkin Elmer are designed for the detection of phosphorylated STAT1 in cell lysates using a simple, homogeneous LANCE Ultra sandwich assay (Cat. #TRF4028M). This assay is intended for assessing compound induction of endogenous levels of cellular STAT1 (phosphorylated at Tyr701) in NCI-H1373 cells. The NCI-H1373 cells are cultured in RPMI 1640 media containing 10% heat inactivated FBS, GlutaMAX, 1% Penicillin-Streptomycin. An Echo acoustic liquid handler is used to transfer 60 nanoliters of compound dilutions using the Echo Qualified, 384-well polypropylene microplate clear flat bottom source plates into a Greiner (#781080) cell culture microplate. NCI-H1373 cells are seeded into these compound-spotted culture plates at 30,000 cells/well in a 60 uL volume in growth media. The plates are incubated in a 5% CO2 humidified incubator at 37° C. for 48 hours. […] Briefly, 20 μL of supplemented lysis buffer is added to each well and allowed to shake for 1 hour at 400 rpm. Next, 5 ul of remixed antibody solutions (vol/vol) prepared in detection buffer are added to each well and allowed to incubate at room temperature overnight. After spinning the plate down at 300 rpm for […], the plate is read on an EnVision plate reader set up for Eu3+ Cryptate and fluorescence emission is measured at two different wavelengths (665 nm and 620 nm).

PARP7 = molecular target: T1, PARP7 (Homo sapiens, UniProt Q7Z3E1); assay: biochemical;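 also: MSD light signal quantifying PARP7 captured by a plate-immobilized probe, read after 1.5 h equilibration plus 1.5 h with SULFO-TAG anti-GST antibody at room temperature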
T1 sequence (Q7Z3E1 1-657): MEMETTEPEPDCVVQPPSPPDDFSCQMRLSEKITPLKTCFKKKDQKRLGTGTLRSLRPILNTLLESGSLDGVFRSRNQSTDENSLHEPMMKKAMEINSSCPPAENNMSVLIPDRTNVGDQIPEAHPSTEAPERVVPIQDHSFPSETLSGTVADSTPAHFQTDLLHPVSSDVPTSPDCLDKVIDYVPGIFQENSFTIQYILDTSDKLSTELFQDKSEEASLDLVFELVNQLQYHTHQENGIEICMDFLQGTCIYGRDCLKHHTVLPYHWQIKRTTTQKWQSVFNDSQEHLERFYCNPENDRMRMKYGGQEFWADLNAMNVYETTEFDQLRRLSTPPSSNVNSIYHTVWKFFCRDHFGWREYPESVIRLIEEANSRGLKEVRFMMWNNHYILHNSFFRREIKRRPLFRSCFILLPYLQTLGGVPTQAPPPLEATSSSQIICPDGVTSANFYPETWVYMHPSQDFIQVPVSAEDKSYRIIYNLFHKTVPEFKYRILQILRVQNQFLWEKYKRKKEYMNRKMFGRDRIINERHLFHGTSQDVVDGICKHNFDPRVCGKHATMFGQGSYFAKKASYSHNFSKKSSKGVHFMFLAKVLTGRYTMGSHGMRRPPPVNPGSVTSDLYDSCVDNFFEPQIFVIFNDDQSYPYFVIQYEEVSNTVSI
Protocol: Probe Displacement Assay for PARP7 Displacement of a biotinylated probe (RBN011147; Wigle et al., Cell Chemical Biology, 2020, pp. 877-887) from the PARP7 NAD+-binding site was measured in vitro using a Mesoscale Discovery electrochemiluminescent assay. […] Next, 10 μl of 10 nM PARP7 protein incubated for 1 hour at room temperature with a dose response curve of each test compound in a Greiner LDV polypropylene plate (#781201) is added to the MSD plate containing the immobilized probe. The interaction is allowed to reach equilibrium for 1.5 hours, and then 10 ul of SULFO-TAG labeled anti-GST antibody (Cat #R32AA-1) is added to each well and allowed to incubate for an additional 1.5 hours at room temperature. Finally, 10 μl of MSD read buffer T (4×, Cat. #R92C-1) is added to each well using a Bravo liquid handler to prevent air bubbles in the wells, and the plates are subsequently read in an MSD instrument. Light intensity is then measured to quantify the amount of PARP7 bound to the immobilized probe on the plate.

SMILES	IC50 (PARP7) [nM]	EC50 [1] [nM]
O=C(c1cccc(CNc2cc(C(F)(F)F)c(=O)[nH]n2)c1)N1CCN(c2ncc(C(F)(F)F)cn2)CC1 [Example 19, 4-(trifluoromethyl)-6-((3-(4-(5-(trifluoromethyl)pyrimidin-2-yl)piperazine-1-carbonyl)benzyl)amino)pyridazin-3(2H)-one]	16.3	≥ 10000
O=C(N1CCN(c2ncc(C(F)(F)F)cn2)CC1)C1(CCNc2cc(C(F)(F)F)c(=O)[nH]n2)CC1 [Example 70, 5-(trifluoromethyl)-3-[2-[1-[4-[5-(trifluoromethyl)pyrimidin-2-yl]piperazine-1-carbonyl]cyclopropyl]ethylamino]-1H-pyridazin-6-one]	0.372	319
CN(CCCC(=O)N1CCN(c2ncc(C(F)(F)F)cn2)CC1)c1cc(C(F)(F)F)c(=O)[nH]n1 [Example 32, 6-(methyl(4-oxo-4-(4-(5-(trifluoromethyl)pyrimidin-2-yl)piperazin-1-yl)butyl)amino)-4-(trifluoromethyl)pyridazin-3(2H)-one]	0.233	75.6
O=C([C@@H]1C[C@H]1CNc1cc(C(F)(F)F)c(=O)[nH]n1)N1CCN(c2ncc(C(F)(F)F)cn2)CC1 [Example 22, 4-(trifluoromethyl)-6-((((1R,2R)-2-(4-(5-(trifluoromethyl)pyrimidin-2-yl)piperazine-1-carbonyl)cyclopropyl)methyl)amino)pyridazin-3(2H)-one]	2.57	≥ 10000
O=C(CCCCc1n[nH]c(=O)c2c1CCCC2)N1CCN(c2ncc(C(F)(F)F)cn2)CC1 [Example 69, 4-[5-oxo-5-[4-[5-(trifluoromethyl)pyrimidin-2-yl]piperazin-1-yl]pentyl]-5,6,7,8-tetrahydro-2H-phthalazin-1-one]	0.755	160
O=C([C@@H]1CC[C@H](Nc2cc(C(F)(F)F)c(=O)[nH]n2)C1)N1CCN(c2ncc(C(F)(F)F)cn2)CC1 [Example 62, 5-(trifluoromethyl)-3-[[(1S,3R)-3-[4-[5-(trifluoromethyl)pyrimidin-2-yl]piperazine-1-carbonyl]cyclopentyl]amino]-1H-pyridazin-6-one]	1.29	2200
O=C([C@H]1CCC[C@H](Nc2cc(C(F)(F)F)c(=O)[nH]n2)C1)N1CCN(c2ncc(C(F)(F)F)cn2)CC1 [Example 61, 5-(trifluoromethyl)-3-[[(1S,3S)-3-[4-[5-(trifluoromethyl)pyrimidin-2-yl]piperazine-1-carbonyl]cyclohexyl]amino]-1H-pyridazin-6-one]	1.78	≥ 10000
O=C([C@@H](O)CCNc1cc(C(F)(F)F)c(=O)[nH]n1)N1CCN(c2ncc(C(F)(F)F)cn2)CC1 [Example 25, (S)-6-((3-hydroxy-4-oxo-4-(4-(5-(trifluoromethyl)pyrimidin-2-yl)piperazin-1-yl)butyl)amino)-4-(trifluoromethyl)pyridazin-3(2H)-one]	0.141	21.3
O=C(CCc1cc(C(F)(F)F)c(=O)[nH]n1)N1CCN(c2ncc(C(F)(F)F)cn2)CC1 [Example 7, 6-(3-oxo-3-(4-(5-(trifluoromethyl)pyrimidin-2-yl)piperazin-1-yl)propyl)-4-(trifluoromethyl)pyridazin-3(2H)-one]	0.958	349
[2H]C1([2H])N(C(=O)CCCCc2cc(C(F)(F)F)c(=O)[nH]n2)C([2H])([2H])C([2H])([2H])N(c2ncc(C(F)(F)F)cn2)C1([2H])[2H] [Example 52, 3-[5-[2,2,3,3,5,5,6,6-octadeuterio-4-[5-(trifluoromethyl)pyrimidin-2-yl]piperazin-1-yl]-5-oxo-pentyl]-5-(trifluoromethyl)-1H-pyridazin-6-one]	0.359	209
Cc1cc(CCCCC(=O)N2CCN(c3ncc(C(F)(F)F)cn3)CC2)n[nH]c1=O [Example 68, 5-methyl-3-[5-oxo-5-[4-[5-(trifluoromethyl)pyrimidin-2-yl]piperazin-1-yl]pentyl]-1H-pyridazin-6-one]	5.66	1320
N#Cc1ccc(N2CCN(C(=O)CCCNc3cc(C(F)(F)F)c(=O)[nH]n3)CC2)nc1 [Example 54, 6-[4-[4-[[6-oxo-5-(trifluoromethyl)-1H-pyridazin-3-yl]amino]butanoyl]piperazin-1-yl]pyridine-3-carbonitrile]	0.408	690
CCCN(CCCC(=O)N1CCN(c2ncc(C(F)(F)F)cn2)CC1)c1cc(C(F)(F)F)c(=O)[nH]n1 [Example 37, 6-((4-oxo-4-(4-(5-(trifluoromethyl)pyrimidin-2-yl)piperazin-1-yl)butyl)(propyl)amino)-4-(trifluoromethyl)pyridazin-3(2H)-one]	0.28	134
O=C(Cc1ccccc1-c1cc(C(F)(F)F)c(=O)[nH]n1)N1CCN(c2ncc(C(F)(F)F)cn2)CC1 [Example 4, 6-(2-(2-oxo-2-(4-(5-(trifluoromethyl)pyrimidin-2-yl)piperazin-1-yl)ethyl)phenyl)-4-(trifluoromethyl)pyridazin-3(2H)-one]	36.3	≥ 10000

Now from value to compound, other results behind:

IC50 (PARP7) [nM]	SMILES	EC50 [1] [nM]
1.1	O=C([C@@H]1Cc2ccccc2N1c1cc(C(F)(F)F)c(=O)[nH]n1)N1CCN(c2ncc(C(F)(F)F)cn2)CC1 [Example 49, 5-(trifluoromethyl)-3-[(2S)-2-[4-[5-(trifluoromethyl)pyrimidin-2-yl]piperazine-1-carbonyl]indolin-1-yl]-1H-pyridazin-6-one]	858
2.01	O=C([C@@H]1CN(Cc2cc(C(F)(F)F)c(=O)[nH]n2)CCO1)N1CCN(c2ncc(C(F)(F)F)cn2)CC1 [Example 74, 5-(trifluoromethyl)-3-[[(2S)-2-[4-[5-(trifluoromethyl)pyrimidin-2-yl]piperazine-1-carbonyl]morpholin-4-yl]methyl]-1H-pyridazin-6-one]	1790
1.33	CC(C)(CCNc1cc(C(F)(F)F)c(=O)[nH]n1)C(=O)N1CCN(c2ncc(C(F)(F)F)cn2)CC1 [Example 71, 3-[[3,3-dimethyl-4-oxo-4-[4-[5-(trifluoromethyl)pyrimidin-2-yl]piperazin-1-yl]butyl]amino]-5-(trifluoromethyl)-1H-pyridazin-6-one]	2560
0.142	O=C(CCC[C@@H]1CCc2c1n[nH]c(=O)c2C(F)(F)F)N1CCN(c2ncc(C(F)(F)F)cn2)CC1 [Example 78, (R)-7-(4-oxo-4-(4-(5-(trifluoromethyl)pyrimidin-2-yl)piperazin-1-yl)butyl)-4-(trifluoromethyl)-2,5,6,7-tetrahydro-3H-cyclopenta[c]pyridazin-3-one]	24.1
0.151	O=C(CCCN(c1ccccc1)c1cc(C(F)(F)F)c(=O)[nH]n1)N1CCN(c2ncc(C(F)(F)F)cn2)CC1 [Example 44, 6-((4-oxo-4-(4-(5-(trifluoromethyl)pyrimidin-2-yl)piperazin-1-yl)butyl)(phenyl)amino)-4-(trifluoromethyl)pyridazin-3(2H)-one]	74.1
0.877	O=C(CCCN(CC(F)F)c1cc(C(F)(F)F)c(=O)[nH]n1)N1CCN(c2ncc(C(F)(F)F)cn2)CC1 [Example 56, 3-[2,2-difluoroethyl-[4-oxo-4-[4-[5-(trifluoromethyl)pyrimidin-2-yl]piperazin-1-yl]butyl]amino]-5-(trifluoromethyl)-1H-pyridazin-6-one]	452
2.92	O=C(CC[C@H]1CCCCN1c1cc(C(F)(F)F)c(=O)[nH]n1)N1CCN(c2ncc(C(F)(F)F)cn2)CC1 [Example 33, (R)-6-(2-(3-oxo-3-(4-(5-(trifluoromethyl)pyrimidin-2-yl)piperazin-1-yl)propyl)piperidin-1-yl)-4-(trifluoromethyl)pyridazin-3(2H)-one]	1220
20.1	O=C([C@@H]1CN(c2cc(C(F)(F)F)c(=O)[nH]n2)CCO1)N1CCN(c2ncc(C(F)(F)F)cn2)CC1 [Example 43, (S)-4-(trifluoromethyl)-6-(2-(4-(5-(trifluoromethyl)pyrimidin-2-yl)piperazine-1-carbonyl)morpholino)pyridazin-3(2H)-one]	≥ 10000

Reference: patent US20230183216A1, “PYRIDIZIN-3(2H)-ONE DERIVATIVES” (Gilead Sciences, Inc., priority 2021, published 2023)
